Data: PMC9328652, “A novel class of fast‐acting antimalarial agents: Substituted 15‐membered azalides” (British Journal of Pharmacology, 2020)
Where two headings read alike, the source gives them in different places.

Columns and labels:
[1] = test system: Plasmodium falciparum W2 (chloroquine/pyrimethamine resistant); assay: [3H]hypoxanthine incorporation antimalarial assay, strain W2; assay type: cell-based; details: W2, 72 h, read-out: Plasmodium falciparum IC50 W2
Description: The activity of the test compounds against P. falciparum in vitro was determined using the tritiated hypoxanthine incorporation assay of Desjardins et al. and additionally modified by Milhous and Chulay (Chulay, Haynes, & Diggs, [1983]; Milhous, Weatherly, Bowdre, & Desjardins, [1985]).
Compounds were dissolved in DMSO and subsequently diluted in the culture medium (RPMI 1640) supplemented with 10% v/v human plasma. Serial 1:2 drug dilutions were prepared in triplicate in microtitre plates. Culture medium supplemented with 10% v/v human plasma and type A Rhesus positive human erythrocytes infected with P. falciparum strains was added to yield a haematocrit of 3% and a parasitaemia of 0.25–0.55%. The plates were incubated at 37°C in a modular incubator flushed with a mixture of 5% oxygen, 3% carbon dioxide, and 92% nitrogen for 48 h, and then [^3H]hypoxanthine was added to give a final concentration of 12.5–16 μCi·ml^−1. After incubation for additional 24 h, particulate matter was harvested on fibreglass strips and hypoxanthine incorporation determined by scintillation spectrophotometry. […] Delayed death experiments were performed by this standard method but extending the incubation time with the drug up to 96 h.

[2] = Pharmacokinetic studies in rats; assay type: in vivo, Sprague–Dawley rats; details: Rat; for half-life / clearance / Vd / bioavailability: male, Sprague-Dawley, whole blood; for half-life: intravenous; for clearance / Vd: iv; for clearance: blood; for Vd: read-out: Vss; for bioavailability: po
Description: For the in vivo pharmacokinetic study, compound 1 was dosed i.v. at 5 mg·kg^−1 (5 ml·kg^−1 dosing volume) and p.o. at a dose of 25 mg·kg^−1 (10 ml·kg^−1) to male Sprague–Dawley rats (Charles River, France), weighing ~350 g. Compounds 2 and 3 were dosed i.v. at 2 mg·kg^−1 (5 ml·kg^−1 dosing volume) and p.o. at a dose of 10 mg·kg^−1 (10 ml·kg^−1). Rats were fasted for 6–12 h (overnight fasting) prior oral administration. For serial blood sampling, rats (n = 3) dosed with an i.v. bolus of compound had blood collected at the following time points after dosing: 5, 10, 20 40, 60, 120, 240, 480, 1,440, and 1,800 min. Rats (n = 3) dosed orally had blood collected at the following time points after dosing: 15, 30, 60, 120, 240, 360, 480, 1,440, and 1,800 min.
Dosing solutions were prepared in 100% saline both for i.v. and p.o. After both routes of administration, blood samples were collected from the tail vein up to 30 h, haemolysed, and frozen until analysis. […] Subsequently, samples were assayed as described for mouse PK.

[3] = test system: panel of five bacterial strains; assay: Antibacterial screen, summary over panel of five bacterial strains; assay type: cell-based
Description: Antibacterial activity of compounds was determined by a standard broth microdilution method (Clinical Laboratory Standard Institute CLSI, [2009]), except that for Streptococcus strains lysed blood was substituted with 5% horse serum in the testing medium. Azithromycin and chloroquine were used as controls. The activities are expressed as minimum inhibitory concentrations (MICs) in units of μg·ml^−1. The compounds have been tested in at least two and up to five independent experiments generating same or similar results (a range of one to two dilutions between tests was considered acceptable which is in accordance to CLSI acceptable quality control ranges). The organisms tested represented macrolide sensitive Gram‐positive pathogens that are mainly targeted by macrolide antibiotics. Tested streptococci were clinical isolates Streptococcus pneumoniae SP030 and Streptococcus pyogenes 3565 from internal strain collection, and other strains were obtained from ATCC bioresource centre, Staphylococcus aureus ATCC13709, Haemophilus influenzae ATCC49247, and Moraxella catarrhalis ATCC23246. Double dilutions of tested compounds were prepared using TECAN Genesis 150. Bacteria were grown on appropriate agar plates (Becton Dickinson, USA)—Columbia agar with 5% sheep blood for streptococci and M. catarrhalis, Mueller‐Hinton chocolate agar for H. influenzae , and Mueller‐Hinton agar for staphylococci.

[4] = test system: monocyte derived macrophages (MDM); assay: Accumulation and retention in human primary cells, MDM; assay type: in vitro ADME; details: mean (SD)
Description: (§1) Accumulation and retention in human primary cells was determined as described in detail previously (Stepanic et al., [2011]). Briefly, normal human bronchial epithelial cells (NHBE, CC‐2541, Lonza), normal human lung fibroblasts (NHLF, CC‐2512, Lonza), and bronchial smooth muscle cells (BSMC, CC‐2576, Lonza) were cultivated according to the protocols of the suppliers. Human polymorphonuclear cells (PMN) and monocytes from healthy volunteers were isolated from buffy coats. Monocytes were isolated by negative selection on magnetic separator. Monocyte‐derived macrophages (MDM) were obtained by cultivating monocytes with 5 ng·ml^−1 rhGMCSF for 10 days. To determine compound accumulation cells were incubated with 3–10 μM of compounds in their corresponding culture medium for 3 h at 37°C in 5% CO2, washed, and lysed. To measure cellular retention of compounds, after being washed, drug‐loaded cells were incubated in fresh medium for 3 h, washed, and lysed. Compound concentrations were determined by HPLC–MS/MS analysis and expressed as % of azithromycin measurements.

[5] = test system: normal human lung fibroblasts (NHLF); assay: Accumulation and retention in human primary cells, NHLF; assay type: in vitro ADME; details: mean (SD)
Description: as §1

[6] = test system: normal human bronchial epithelium (NHBE); assay: Accumulation and retention in human primary cells, NHBE; assay type: in vitro ADME; details: mean (SD)
Description: as §1

[7] = test system: Polymorphonuclear leukocytes (PMN); assay: Accumulation and retention in human primary cells, PMN; assay type: in vitro ADME; details: mean (SD)
Description: as §1

Question: Which results are given for CC[C@H]1OC(=O)[C@H](C)[C@@H](O)[C@H](C)[C@@H](O[C@@H]2O[C@H](C)C[C@H](N(C)C)[C@H]2OCCCNc2ccnc3ccccc23)[C@](C)(O)C[C@@H](C)CN[C@H](C)[C@@H](O)[C@]1(C)O [Compound 3]?
Answer: IC50 [1]: 27 nM; DNAUCPO ([2]; oral gavage 10 mg·kg^−1, mean (SD)): 36.2 (29) ng*h·ml^−1·mg^−1·kg^−1; half-life ([2]; i.v. 2 mg·kg^−1 / p.o. 10 mg·kg^−1, mean (SD)): 18.8 h; clearance ([2]; i.v. 2 mg·kg^−1, mean (SD)): 4 mL/min/kg; Vd ([2]; i.v. 2 mg·kg^−1, mean (SD)): 6.3 L/kg; bioavailability ([2]; i.v. 2 mg·kg^−1, p.o. 10 mg·kg^−1, mean (SD)): 1%; antibacterial activity (in words) [3]: no antibacterial activity

Question: Which accumulation ([4]; 3 h) does the source give for CC[C@H]1OC(=O)[C@H](C)[C@@H](O[C@H]2C[C@@](C)(OC)[C@@H](O)[C@H](C)O2)[C@H](C)[C@@H](O[C@@H]2O[C@H](C)C[C@H](N(C)C)[C@H]2O)[C@](C)(O)C[C@@H](C)CN(CCCNc2ccnc3cc(Cl)ccc23)[C@H](C)[C@@H](O)[C@]1(C)O [Compound 1] here?
Answer: 118 (21) % azithromycin

Question: What about the retention ([4]; 3 h in fresh medium) of the same molecule?
Answer: 94 (0) % azithromycin

Question: What about the accumulation ([5]; 3 h) of the same molecule?
Answer: 100 (11) % azithromycin

Question: And the retention ([5]; 3 h in fresh medium)?
Answer: 85 (3) % azithromycin

Question: And the IC50 [1]?
Answer: 27 nM

Question: What about the accumulation ([6]; 3 h) of the same molecule?
Answer: 162 (3) % azithromycin

Question: And the retention ([6]; 3 h in fresh medium)?
Answer: 123 (11) % azithromycin

Question: And the DNAUCPO ([2]; p.o. 25 mg·kg^−1, mean (SD))?
Answer: 169 (21) ng*h·ml^−1·mg^−1·kg^−1

Question: What about the half-life ([2]; i.v. 5 mg·kg^−1 / p.o. 25 mg·kg^−1, mean (SD)) of the same molecule?
Answer: 23.3 h

Question: What about the clearance ([2]; i.v. 5 mg·kg^−1, mean (SD)) of the same molecule?
Answer: 2.4 mL/min/kg

Question: And the Vd ([2]; i.v. 5 mg·kg^−1, mean (SD))?
Answer: 3.8 L/kg

Question: And the bioavailability ([2]; i.v. 5 mg·kg^−1, p.o. 25 mg·kg^−1, mean (SD))?
Answer: 2.3%

Question: And the accumulation ([7]; 3 h)?
Answer: 127 (36) % azithromycin

Question: And the retention ([7]; 3 h in fresh medium)?
Answer: 101 (19) % azithromycin

Question: What about the “antibacterial activity (in words)” value [3] of the same molecule?
Answer: inhibited the growth of whole cell bacteria
